{"source": "patent US7842279B2", "about": "“F-18 peptides for pre targeted positron emission tomography imaging” (Immunomedics, Inc., priority 2005, dated 2010)", "tested_on": "LS174T human colon adenocarcinoma", "assay": "PET imaging of human colon cancer tissue in nude mice", "assay_type": "in vivo", "details": "female athymic nu/nu mice, s.c. LS174T xenograft, 20 μCi i.v.", "experimental": "A humanized MN-14 IgG antibody is prepared as described in U.S. Pat. No. 6,676,924. ^18F-labeled bisulfite addition complex is prepared as described in Example 8 and is linked to the humanized MN-14 IgG by reductive amination with sodium cyanoborohydride using standard techniques (see, e.g., Gray, 1978, Meth. Enzymol. 50:155-160.). Alternatively, an antibody or antibody fragment is directly labeled with [^18F]Fluorobenzaldehyde in the presence of hydroxylamine, thiosemicarbazide or hydrazine. Gel-permeation column chromatography is used to separated the 4-[^18F]Fluorobenzaldehyde/hMN-14 immunoconjugate from unconjugated 4-[^18F]Fluorobenzaldehyde bisulfite addition complex. The 4-[^18F]Fluorobenzaldehyde/hMN-14 immunoconjugate is used to localize human colon cancer tissue in nude mice. At 4-5 weeks female athymic mice (nu/nu, Harlan, Indianapolis, Ind.) are injected s.c. with 0.2 ml of a 10% suspension of LS174T human colon adenocarcinoma prepared from a xenograft serially propagated in an athymic mouse (Sharkey et al., Cancer Res., 50: 828-34 (1990)). After waiting 2 weeks for tumor development, the mice are injected i.v. with 20 μCi of 4-[^18F]Fluorobenzaldehyde/hMN-14 immunoconjugate. Tumor tissue is imaged by PET imaging, using standard ^18F detection methods."}
{"substance": "4-[^18F]Fluorobenzaldehyde/hMN-14 immunoconjugate", "values": [{"measurement": "tumor detection by PET imaging (F-18 distribution)", "value": "detected as hot spots of F-18 distribution against a low-level background of F-18"}]}
